Experimental data from ChEMBL document CHEMBL4130476, “4-Alkyliden-azetidinones modified with plant derived polyphenols: Antibacterial and antioxidant properties” (2017).
Values after ≈ are worked out from the molar mass of the structure shown.

Tests used:
Format in all cases: functional
Staphylococcus aureus [1] = assay: Antibacterial activity against methicillin-resistant Staphylococcus aureus 44674 assessed as inhibition of bacterial growth incubated for 18 to 24 hrs by broth microdilution method
Staphylococcus aureus [2] = assay: Antibacterial activity against methicillin-susceptible Staphylococcus aureus 39249 assessed as inhibition of bacterial growth incubated for 18 to 24 hrs by broth microdilution method
Staphylococcus aureus [3] = assay: Antibacterial activity against methicillin-susceptible Staphylococcus aureus 69856 assessed as inhibition of bacterial growth incubated for 18 to 24 hrs by broth microdilution method
Staphylococcus hominis = assay: Antibacterial activity against linezolid and methicillin-resistant Staphylococcus hominis alpha26 assessed as inhibition of bacterial growth incubated for 18 to 24 hrs by broth microdilution method
Enterococcus faecalis [4] = assay: Antibacterial activity against linezolid and […] 4150 assessed as inhibition of bacterial growth incubated for 18 to 24 hrs by broth microdilution method
[5] = tested on: Staphylococcus epidermidis; assay: Antibacterial activity against methicillin-susceptible Staphylococcus epidermidis 3226 assessed as inhibition of bacterial growth incubated for 18 to 24 hrs by broth microdilution method
Enterococcus faecium = assay: Antibacterial activity against linezolid and vancomycin-resistant Enterococcus faecium VRE2 assessed as inhibition of bacterial growth incubated for 18 to 24 hrs by broth microdilution method
[6] = Antioxidant activity assessed as ABTS scavenging activity by measuring mmol of Trolox equivalent antioxidant capacity incubated for 6 mins
Enterococcus faecalis [7] = assay: Antibacterial activity against Enterococcus faecalis ATCC 29212 assessed as inhibition of bacterial growth incubated for 18 to 24 hrs by broth microdilution method
[8] = tested on: Staphylococcus epidermidis; assay: Antibacterial activity against linezolid and methicillin-resistant Staphylococcus epidermidis G1027 assessed as inhibition of bacterial growth incubated for 18 to 24 hrs by broth microdilution method
[9] = Antioxidant activity assessed as DPPH scavenging activity by measuring mmol of Trolox equivalent antioxidant capacity incubated for 40 mins
Staphylococcus aureus [10] = assay: Antibacterial activity against Staphylococcus aureus ATCC 29213 assessed as inhibition of bacterial growth incubated for 18 to 24 hrs by broth microdilution method
Staphylococcus aureus [11] = assay: Antibacterial activity against linezolid and methicillin-resistant Staphylococcus aureus SAU-1 assessed as inhibition of bacterial growth incubated for 18 to 24 hrs by broth microdilution method

In the case of `C[C@@H](OC(=O)c1ccc(O)c(O)c1)[C@H]1C(=O)N/C1=C\C(=O)OCc1ccccc1`, the MIC (Staphylococcus aureus [1]) is reported as 8 µg/mL (≈ 20.1 µM), the MIC (Staphylococcus aureus [2]) is reported as 4 µg/mL (≈ 10.1 µM) and the MIC (Staphylococcus aureus [3]) is reported as 4 µg/mL (≈ 10.1 µM). It also gave an MIC (Staphylococcus hominis) of over 128 µg/mL, an MIC (Enterococcus faecalis [4]) of 128 µg/mL (≈ 322 µM) and an MIC [5] of 16 µg/mL (≈ 40.3 µM). It also gave an MIC (Enterococcus faecium) of 128 µg/mL (≈ 322 µM), an Activity [6] of 1.3 mmolequiv and an MIC (Enterococcus faecalis [7]) of 128 µg/mL (≈ 322 µM). For the same compound, the MIC [8] was 16 µg/mL (≈ 40.3 µM), the Activity [9] was 2.59 mmolequiv and the MIC (Staphylococcus aureus [10]) was 16 µg/mL (≈ 40.3 µM). It also gave an MIC (Staphylococcus aureus [11]) of 16 µg/mL (≈ 40.3 µM).

`C[C@@H](OC(=O)c1ccc2c(c1)OCO2)[C@H]1C(=O)N/C1=C\C(=O)OCc1ccccc1` showed an MIC (Staphylococcus aureus [1]) of 4 µg/mL (≈ 9.77 µM), an MIC (Staphylococcus aureus [2]) of 4 µg/mL (≈ 9.77 µM) and an MIC (Staphylococcus aureus [3]) of 8 µg/mL (≈ 19.5 µM). It also gave an MIC (Staphylococcus hominis) of 4 µg/mL (≈ 9.77 µM), an MIC (Enterococcus faecalis [4]) of over 128 µg/mL and an MIC [5] of 8 µg/mL (≈ 19.5 µM). For the same compound, the MIC (Enterococcus faecium) was over 128 µg/mL, the MIC (Enterococcus faecalis [7]) was over 128 µg/mL and the MIC [8] was 4 µg/mL (≈ 9.77 µM). It also gave an Activity [9] of 0.012 mmolequiv, an MIC (Staphylococcus aureus [10]) of 2 µg/mL (≈ 4.89 µM) and an MIC (Staphylococcus aureus [11]) of 2 µg/mL (≈ 4.89 µM).

In the case of `C[C@@H](OC(=O)/C=C/c1ccc(O)cc1)[C@H]1C(=O)N/C1=C\C(=O)OCc1ccccc1`, the MIC (Staphylococcus aureus [1]) is reported as 4 µg/mL (≈ 9.82 µM), the MIC (Staphylococcus aureus [2]) is reported as 4 µg/mL (≈ 9.82 µM) and the MIC (Staphylococcus aureus [3]) is reported as 8 µg/mL (≈ 19.6 µM). The MIC (Staphylococcus hominis) was 4 µg/mL (≈ 9.82 µM), the MIC (Enterococcus faecalis [4]) was 64 µg/mL (≈ 157 µM) and the MIC [5] was 8 µg/mL (≈ 19.6 µM). It also gave an MIC (Enterococcus faecium) of over 128 µg/mL, an Activity [6] of 0.053 mmolequiv and an MIC (Enterococcus faecalis [7]) of over 128 µg/mL. The MIC [8] was 8 µg/mL (≈ 19.6 µM), the Activity [9] was 0.003 mmolequiv and the MIC (Staphylococcus aureus [10]) was 8 µg/mL (≈ 19.6 µM). The MIC (Staphylococcus aureus [11]) was 4 µg/mL (≈ 9.82 µM).

Compound `C[C@@H](OC(=O)/C=C/c1ccc2c(c1)OCO2)[C@H]1C(=O)N/C1=C\C(=O)OCc1ccccc1` has an MIC (Staphylococcus aureus [1]) of over 128 µg/mL, an MIC (Staphylococcus aureus [2]) of over 128 µg/mL and an MIC (Staphylococcus aureus [3]) of over 128 µg/mL. The MIC (Staphylococcus hominis) was 128 µg/mL (≈ 294 µM), the MIC (Enterococcus faecalis [4]) was over 128 µg/mL and the MIC [5] was over 128 µg/mL. The MIC (Enterococcus faecium) was over 128 µg/mL, the MIC (Enterococcus faecalis [7]) was over 128 µg/mL and the MIC [8] was over 128 µg/mL. It also gave an MIC (Staphylococcus aureus [10]) of over 128 µg/mL and an MIC (Staphylococcus aureus [11]) of over 128 µg/mL.

In the case of `C[C@@H](OC(=O)/C=C/c1ccccc1O)[C@H]1C(=O)N/C1=C\C(=O)OCc1ccccc1`, the MIC (Staphylococcus aureus [1]) is reported as over 128 µg/mL, the MIC (Staphylococcus aureus [2]) is reported as over 128 µg/mL and the MIC (Staphylococcus aureus [3]) is reported as over 128 µg/mL. It also gave an MIC (Staphylococcus hominis) of 2 µg/mL (≈ 4.91 µM), an MIC (Enterococcus faecalis [4]) of over 128 µg/mL and an MIC [5] of over 128 µg/mL. The MIC (Enterococcus faecium) was over 128 µg/mL, the Activity [6] was 0.143 mmolequiv and the MIC (Enterococcus faecalis [7]) was over 128 µg/mL. It also gave an MIC [8] of over 128 µg/mL, an Activity [9] of 0.002 mmolequiv and an MIC (Staphylococcus aureus [10]) of 2 µg/mL (≈ 4.91 µM). It also gave an MIC (Staphylococcus aureus [11]) of 1 µg/mL (≈ 2.45 µM).

`C[C@@H](OC(=O)/C=C/c1ccc(O)c(O)c1)[C@H]1C(=O)N/C1=C\C(=O)OCc1ccccc1` showed an MIC (Staphylococcus aureus [1]) of over 128 µg/mL, an MIC (Staphylococcus aureus [2]) of over 128 µg/mL and an MIC (Staphylococcus aureus [3]) of over 128 µg/mL. For the same compound, the MIC (Staphylococcus hominis) was over 128 µg/mL, the MIC (Enterococcus faecalis [4]) was over 128 µg/mL and the MIC [5] was over 128 µg/mL. It also gave an MIC (Enterococcus faecium) of over 128 µg/mL, an Activity [6] of 1.03 mmolequiv and an MIC (Enterococcus faecalis [7]) of over 128 µg/mL. The MIC [8] was over 128 µg/mL, the Activity [9] was 1.67 mmolequiv and the MIC (Staphylococcus aureus [10]) was over 128 µg/mL. The MIC (Staphylococcus aureus [11]) was over 128 µg/mL.
